Laboratory results reported in ChEMBL document CHEMBL2417538, “Antithrombotic effects of LB30870, a potent, orally active, selective and direct thrombin inhibitor, and pharmacokinetics of its prodrug” (Bioorg Med Chem Lett, 2013).
Converted amounts (≈) assume the structure as drawn.

Tests used:
[1] = tested on: Canis familiaris; assay: AUC in Beagle dog at 10 mg/kg, po assessed as LB30870; format: ADME, organism-based, Canis lupus familiaris, Plasma; parameters: dose 10 mg/kg, route oral; conditions: in vivo
[2] = tested on: Canis familiaris; assay: Cmax in Beagle dog at 10 mg/kg, po assessed as LB30887; format: ADME, organism-based, Canis lupus familiaris; parameters: dose 10 mg/kg, route oral; conditions: in vivo
[3] = Aqueous solubility of the compound at pH 6.96; format: physicochemical; conditions: aqueous solution
[4] = Dissociation constant, pKa of the compound by potentiometric titration; format: physicochemical
[5] = tested on: Rattus norvegicus; assay: AUC in Sprague-Dawley rat at 30 mg/kg, po assessed as LB30870; format: ADME, organism-based, Plasma; parameters: dose 30 mg/kg, route oral; conditions: in vivo
[6] = tested on: Rattus norvegicus; assay: AUC in Sprague-Dawley rat at 30 mg/kg, po assessed as LB30887; format: ADME, organism-based, Plasma; parameters: dose 30 mg/kg, route oral; conditions: in vivo
[7] = tested on: Rattus norvegicus; assay: Cmax in Sprague-Dawley rat at 30 mg/kg, po assessed as LB30870; format: ADME, organism-based; parameters: dose 30 mg/kg, route oral; conditions: in vivo
[8] = tested on: Rattus norvegicus; assay: Cmax in Sprague-Dawley rat at 30 mg/kg, po assessed as LB30887; format: ADME, organism-based; parameters: dose 30 mg/kg, route oral; conditions: in vivo
[9] = Aqueous solubility of the compound at pH 4.73; format: physicochemical; conditions: aqueous solution
[10] = tested on: Canis familiaris; assay: Oral bioavailability in Beagle dog at 10 mg/kg assessed as LB30870; format: ADME, organism-based, Canis lupus familiaris; conditions: in vivo
[11] = Distribution coefficient, log D of the compound at pH 7 by potentiometric titration; format: physicochemical; conditions: octanol/water
[12] = tested on: Canis familiaris; assay: Cmax in Beagle dog at 10 mg/kg, po assessed as LB30870; format: ADME, organism-based, Canis lupus familiaris; parameters: dose 10 mg/kg, route oral; conditions: in vivo
[13] = tested on: Rattus norvegicus; assay: Oral bioavailability in Sprague-Dawley rat at 30 mg/kg assessed as LB30870; format: ADME, organism-based; conditions: in vivo
[14] = tested on: Canis familiaris; assay: AUC in Beagle dog at 10 mg/kg, po assessed as LB30887; format: ADME, organism-based, Canis lupus familiaris, Plasma; parameters: dose 10 mg/kg, route oral; conditions: in vivo
[15] = Aqueous solubility of the compound at pH 3.04; format: physicochemical; conditions: aqueous solution
[16] = target: Tissue-type plasminogen activator (Homo sapiens, UniProt P00750); assay: Inhibition of human t-PA
[17] = target: Trypsin (Homo sapiens, UniProt P07477+P07478+P35030); assay: Inhibition of human trypsin; format: protein assay
[18] = target: Plasminogen (Homo sapiens, UniProt P00747); assay: Inhibition of human plasmin
[19] = target: Coagulation factor X (Homo sapiens, UniProt P00742); assay: Inhibition of human factor 10a
[20] = Aqueous solubility of the compound at pH 7.4; format: physicochemical; conditions: aqueous solution
[21] = Aqueous solubility of the compound at pH 6.3; format: physicochemical; conditions: aqueous solution
[22] = Aqueous solubility of the compound at pH 9.0; format: physicochemical; conditions: aqueous solution
[23] = tested on: Rattus norvegicus; assay: Anticoagulant activity in Sprague-Dawley rat deep vein thrombosis model assessed as activated partial thromboplastin time change at 0.025 mg/kg, iv administered as bolus and 1 ug/kg/min administered as infusion relative to control; format: functional
[24] = tested on: Rattus norvegicus; assay: Anticoagulant activity in Sprague-Dawley rat deep vein thrombosis model assessed as wet clot weight at 0.044 mg/kg, iv administered as bolus and 1.75 ug/kg/min administered as infusion (reference value: 83 +/- 5.1 mg); format: functional
[25] = tested on: Rattus norvegicus; assay: Anticoagulant activity in Sprague-Dawley rat deep vein thrombosis model assessed as prothrombin time change at […], iv administered as bolus and 2.5 ug/kg/min administered as infusion relative to control; format: functional
[26] = tested on: Rattus norvegicus; assay: Anticoagulant activity in Sprague-Dawley rat deep vein thrombosis model assessed as prothrombin time change at 0.025 mg/kg, iv administered as bolus and 1 ug/kg/min administered as infusion relative to control; format: functional
[27] = Plasma protein binding in rat at 1 ug/ml by ultra-filtration method; format: ADME, cell-free; conditions: read-out: PPB (converted)
[28] = tested on: Rattus norvegicus; assay: Anticoagulant activity in Sprague-Dawley rat deep vein thrombosis model assessed as prothrombin time change at 0.25 mg/kg, iv administered as bolus and 10 ug/kg/min administered as infusion relative to control; format: functional
[29] = Plasma protein binding in human at 1 ug/ml by ultra-filtration method; format: ADME, cell-free; conditions: read-out: PPB (converted)
[30] = tested on: Rattus norvegicus; assay: Anticoagulant activity in Sprague-Dawley rat deep vein thrombosis model assessed as wet clot weight at 0.125 mg/kg, iv administered as bolus and 5 ug/kg/min administered as infusion (reference value: 83 +/- 5.1 mg); format: functional
[31] = tested on: Rattus norvegicus; assay: Anticoagulant activity in Sprague-Dawley rat deep vein thrombosis model assessed as reduction in wet clot weight at 35 ug/kg, iv administered as infusion; format: functional
[32] = tested on: Rattus norvegicus; assay: Anticoagulant activity in Sprague-Dawley rat deep vein thrombosis model assessed as activated partial thromboplastin time change at 0.044 mg/kg, iv administered as bolus and 1.75 ug/kg/min administered as infusion relative to control; format: functional
[33] = tested on: Rattus norvegicus; assay: Anticoagulant activity in Sprague-Dawley rat deep vein thrombosis model assessed as prothrombin time change at 0.125 mg/kg, iv administered as bolus and 5 ug/kg/min administered as infusion relative to control; format: functional
[34] = tested on: Rattus norvegicus; assay: Anticoagulant activity in Sprague-Dawley rat deep vein thrombosis model assessed as reduction in wet clot weight administered as iv bolus followed by infusion relative to control; format: functional, organism-based
[35] = tested on: Rattus norvegicus; assay: Anticoagulant activity in Sprague-Dawley rat deep vein thrombosis model assessed as activated partial thromboplastin time change at […], iv administered as bolus and 2.5 ug/kg/min administered as infusion relative to control; format: functional
[36] = tested on: Rattus norvegicus; assay: Anticoagulant activity in Sprague-Dawley rat deep vein thrombosis model assessed as activated partial thromboplastin time change at 0.25 mg/kg, iv administered as bolus and 10 ug/kg/min administered as infusion relative to control; format: functional
[37] = tested on: Rattus norvegicus; assay: Anticoagulant activity in Sprague-Dawley rat deep vein thrombosis model assessed as activated partial thromboplastin time change at 0.125 mg/kg, iv administered as bolus and 5 ug/kg/min administered as infusion relative to control; format: functional
[38] = tested on: Rattus norvegicus; assay: Anticoagulant activity in Sprague-Dawley rat deep vein thrombosis model assessed as prothrombin time change at 0.044 mg/kg, iv administered as bolus and 1.75 ug/kg/min administered as infusion relative to control; format: functional
[39] = tested on: Rattus norvegicus; assay: Anticoagulant activity in Sprague-Dawley rat deep vein thrombosis model assessed as wet clot weight at […], iv administered as bolus and 2.5 ug/kg/min administered as infusion (reference value: 83 +/- 5.1 mg); format: functional

Chain of Plasminogen (P00747 97-580 limits assumed): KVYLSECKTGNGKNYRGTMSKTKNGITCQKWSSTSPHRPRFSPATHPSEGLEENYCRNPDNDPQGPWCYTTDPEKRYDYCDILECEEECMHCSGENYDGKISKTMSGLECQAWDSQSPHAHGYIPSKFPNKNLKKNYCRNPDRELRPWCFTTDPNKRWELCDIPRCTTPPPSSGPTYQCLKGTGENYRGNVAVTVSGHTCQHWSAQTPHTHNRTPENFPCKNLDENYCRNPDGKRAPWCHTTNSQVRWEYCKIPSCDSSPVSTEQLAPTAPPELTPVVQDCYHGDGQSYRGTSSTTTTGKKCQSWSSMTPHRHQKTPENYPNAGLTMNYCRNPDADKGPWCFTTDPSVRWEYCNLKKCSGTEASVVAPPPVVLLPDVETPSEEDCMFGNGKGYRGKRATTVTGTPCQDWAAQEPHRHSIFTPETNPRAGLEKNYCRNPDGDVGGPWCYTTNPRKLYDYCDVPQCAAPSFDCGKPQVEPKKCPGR
Chain of Plasminogen (P00747 581-810 limits assumed): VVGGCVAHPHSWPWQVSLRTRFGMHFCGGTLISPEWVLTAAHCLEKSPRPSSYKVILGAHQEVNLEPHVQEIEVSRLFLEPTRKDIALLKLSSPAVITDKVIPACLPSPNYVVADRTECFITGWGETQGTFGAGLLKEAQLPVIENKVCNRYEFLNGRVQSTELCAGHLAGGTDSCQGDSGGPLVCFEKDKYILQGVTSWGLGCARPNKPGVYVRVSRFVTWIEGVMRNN
Chain of Tissue-type plasminogen activator (P00750 whole entry): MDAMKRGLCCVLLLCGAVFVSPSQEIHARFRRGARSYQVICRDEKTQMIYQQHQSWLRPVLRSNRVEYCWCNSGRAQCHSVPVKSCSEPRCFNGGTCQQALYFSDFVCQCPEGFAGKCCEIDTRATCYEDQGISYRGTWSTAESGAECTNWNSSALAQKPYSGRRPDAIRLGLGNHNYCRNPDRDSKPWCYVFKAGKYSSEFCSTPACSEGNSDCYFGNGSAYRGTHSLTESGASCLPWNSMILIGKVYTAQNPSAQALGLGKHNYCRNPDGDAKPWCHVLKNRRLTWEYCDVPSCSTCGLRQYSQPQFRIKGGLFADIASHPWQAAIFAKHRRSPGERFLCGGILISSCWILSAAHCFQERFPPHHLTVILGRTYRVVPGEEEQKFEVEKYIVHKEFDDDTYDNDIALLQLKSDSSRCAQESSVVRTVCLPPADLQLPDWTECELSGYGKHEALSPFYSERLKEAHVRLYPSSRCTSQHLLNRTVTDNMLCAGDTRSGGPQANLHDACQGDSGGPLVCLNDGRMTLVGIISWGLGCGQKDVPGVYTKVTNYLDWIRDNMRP
Chain of Coagulation factor X (P00742 41-179 limits assumed): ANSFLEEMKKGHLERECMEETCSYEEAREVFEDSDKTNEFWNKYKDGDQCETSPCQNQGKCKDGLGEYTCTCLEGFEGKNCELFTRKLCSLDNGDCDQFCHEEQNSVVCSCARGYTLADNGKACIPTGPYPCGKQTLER
Chain of Coagulation factor X (P00742 235-488 limits assumed): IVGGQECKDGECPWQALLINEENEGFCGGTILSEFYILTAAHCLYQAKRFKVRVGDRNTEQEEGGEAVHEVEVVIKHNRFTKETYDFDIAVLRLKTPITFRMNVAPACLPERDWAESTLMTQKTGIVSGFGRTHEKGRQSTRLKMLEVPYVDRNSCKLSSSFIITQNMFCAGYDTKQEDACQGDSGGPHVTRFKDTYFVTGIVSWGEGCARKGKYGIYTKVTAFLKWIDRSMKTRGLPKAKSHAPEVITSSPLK

CCOC(=O)CN[C@H](C(=O)N1CCC[C@H]1C(=O)NCc1ccc(/C(N)=N/O)s1)C(c1ccccc1)c1ccccc1
AUC [1]: 491 µg·min/mL
Cmax [2]: 2.1 µg/mL
solubility [3]: < 10 µg/mL
pKa [4]: 3.98
AUC [5]: 38 µg·min/mL
AUC [6]: 203 µg·min/mL
Cmax [7]: 0.44 µg/mL
Cmax [8]: 1.74 µg/mL
solubility [9]: 10 µg/mL (≈ 17.3 µM)
F [10]: 35%
logD [11]: 1.74
Cmax [12]: 3.7 µg/mL
F [13]: 13%
AUC [14]: 100 µg·min/mL
solubility [15]: 550 µg/mL (≈ 952 µM)

CC1CNc2c(cccc2S(=O)(=O)N[C@@H](CCCNC(=N)N)C(=O)N2CC[C@@H](C)C[C@@H]2C(=O)O)C1 (stereo partly specified) [ARGATROBAN]
Ki [16]: 87.8 µM
Ki [17]: 1.99 µM
Ki [18]: 257 µM
Ki [19]: 53 µM

CCCCCCOC(=O)NC(=N)c1ccc(NCc2nc3cc(C(=O)N(CCC(=O)OCC)c4ccccn4)ccc3n2C)cc1 [DABIGATRAN ETEXILATE]
solubility [20]: 0.4 µg/mL (≈ 0.637 µM)
solubility [21]: 2.3 µg/mL (≈ 3.66 µM)
logD [11]: 3.7
solubility [22]: 0.3 µg/mL (≈ 0.478 µM)

CCOC(=O)CN[C@@H](C(=O)N1CC[C@H]1C(=O)NCc1ccc(/C(N)=N\O)cc1)C1CCCCC1 [XIMELAGATRAN]
pKa [4]: 4.73
logD [11]: 0.41

N=C(N)c1ccc(CNC(=O)[C@@H]2CCN2C(=O)[C@H](NCC(=O)O)C2CCCCC2)cc1
fold change (FC) [23]: 1.67
Activity [24]: 25.6 mg
Ki [16]: 1.51 µM
Ki [17]: 0.0043 µM
fold change (FC) [25]: 1.46
fold change (FC) [26]: 1.13
fraction unbound at 1 ug/ml [27]: 0.9
fold change (FC) [28]: 3.66
fraction unbound at 1 ug/ml [29]: 0.847
Activity [30]: 3.6 mg
ED50 [31]: 1.4 µg/kg/min
Ki [18]: 1.8 µM
fold change (FC) [32]: 1.98
fold change (FC) [33]: 2.72
Activity [34]: Dose-dependent effect
fold change (FC) [35]: 1.83
fold change (FC) [36]: 6.05
fold change (FC) [37]: 3.95
fold change (FC) [38]: 1.42
Ki [19]: 3.68 µM
Activity [39]: 15.9 mg
